Each molecule was assayed against T1, human Glycogen Synthase Kinase-3 beta (hGSK-3β) (Homo sapiens, UniProt P49841) (assay: Biochemical hGSK-3Beta assay (33P-ATP phosphorylation of biotinylated peptide substrate)). Details: 10 μM ATP, 30 minutes at room temperature; read-out: GSK-3β IC50.
T1 construct: purchased Upstate cell signaling solutions
T1 sequence (P49841 whole entry): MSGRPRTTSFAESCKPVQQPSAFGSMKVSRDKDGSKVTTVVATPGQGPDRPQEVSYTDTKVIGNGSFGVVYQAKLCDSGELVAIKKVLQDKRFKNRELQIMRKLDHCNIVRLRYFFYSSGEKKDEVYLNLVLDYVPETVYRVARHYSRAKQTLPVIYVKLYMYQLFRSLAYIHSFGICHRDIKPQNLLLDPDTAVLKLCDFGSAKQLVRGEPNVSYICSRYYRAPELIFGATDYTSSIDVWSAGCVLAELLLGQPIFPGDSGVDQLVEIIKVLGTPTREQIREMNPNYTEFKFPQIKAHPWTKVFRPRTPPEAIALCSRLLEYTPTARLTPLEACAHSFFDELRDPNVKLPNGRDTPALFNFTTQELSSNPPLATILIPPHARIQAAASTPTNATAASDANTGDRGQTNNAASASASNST
Description: Methods—Biochemical hGSK-3Beta Assay
Compounds were tested for their ability to inhibit human Glycogen Synthase Kinase-3 beta (hGSK-3β) to phosphorylate biotin-[…](pS)EDEEE. Compounds were incubated with 0.5 μCi 33P-ATP, 10 μM ATP, 0.0125 U hGSK-3β (Upstate cell signaling solutions) and 1 μM substrate (biotin-[…](pS)EDEEE) in 50 mM HEPES, 10 mM MgCl2, […], 1 mM DTT, 0.0075% Triton, 2% DMSO (total volume 50 μL) for 30 minutes at room temperature. The incubation was stopped by addition of an equal volume of 100 mM EDTA, 4M NaCl. 80 μL of this mixture was added to streptavidin-coated Flashplates (PerkinElmer). Following a wash step, 33P incorporation was quantified on a MicroBeta microplate liquid scintillation counter (Perkin Elmer). IC50's were determined by fitting a sigmoidal dose-response curve to the counts obtained at the different concentrations in Graph Pad Prism.
With `O=C(Nc1cnccn1)Nc1ccnc2cc(I)ccc12` [Example 27, 1-(7-Iodoquinolin-4-yl)-3-(pyrazin-2-yl)urea] the IC50 was less than 100 nM.
With “1-(8-Bromoquinolin-4-yl)-3-(pyrazin-2-yl)urea [Example 37]” the IC50 was less than 100 nM.
For “1-(7-Bromoquinolin-4-yl)-3-(pyrazin-2-yl)urea [Example 28]”, the IC50 was less than 100 nM.
For `O=C(Nc1cnccn1)Nc1c(Br)cnc2ccccc12` [Example 35, 1-(3-Bromoquinolin-4-yl)-3-(pyrazin-2-yl)urea], the IC50 was 100 to 10000 nM.
For `O=C(Nc1ccccc1)Nc1ccnc2ccccc12` [Example 30, 1-Phenyl-3-(quinolin-4-yl)urea, reference compound], the IC50 was greater than 10000 nM.
`O=C(Nc1cnccn1)Nc1c2c(nc3ccccc13)CCCC2` [Example 5, 1-Pyrazin-2-yl-3-(1,2,3,4-tetrahydro-acridin-9-yl)-urea] showed an IC50 of 100 to 10000 nM.
`O=C(Nc1cnccn1)Nc1cccc2ccccc12` [Example 7, 1-Naphthalen-1-yl-3-pyrazin-2-yl-urea] showed an IC50 greater than 10000 nM.
Work on `O=C(Nc1cnccn1)Nc1ccnc2c(I)cccc12` [Example 34, 1-(8-Iodoquinolin-4-yl)-3-(pyrazin-2-yl)urea] yielded an IC50 of less than 100 nM.
`O=C(Nc1cnccn1)Nc1ccnc2c(Cl)cccc12` [Example 32, 1-(8-Chloroquinolin-4-yl)-3-(pyrazin-2-yl)urea] gave an IC50 of less than 100 nM.
`O=C(Nc1cnccn1)Nc1cncc2ccccc12` [Example 6, 1-Isoquinolin-4-yl-3-pyrazin-2-yl-urea] gave an IC50 of 100 to 10000 nM.
`O=C(Nc1cnccn1)Nc1cc(C(F)(F)F)nc2ccccc12` [Example 1, 1-Pyrazin-2-yl-3-(2-trifluoromethyl-quinolin-4-yl)-urea] gave an IC50 of 100 to 10000 nM.
`O=C(Nc1ccccn1)Nc1ccnc2cc(C(F)(F)F)ccc12` [Example 29, 1-(Pyridin-2-yl)-3-(7-(trifluoromethyl)quinolin-4-yl)urea] was tested, and the IC50 was 100 to 10000 nM.
“1-Methyl-1-pyrazin-2-yl-3-(6-trifluoromethyl-quinolin-4-yl)-urea [Example 22]” gave an IC50 greater than 10000 nM.
Work on `O=C(Nc1cnccn1)Nc1cccc2ccncc12` [Example 19, 1-Isoquinolin-8-yl-3-pyrazin-2-yl-urea] yielded an IC50 of 100 to 10000 nM.
`Cc1cccc2c(NC(=O)Nc3cnccn3)ccnc12` [Example 31, 1-(8-Methylquinolin-4-yl)-3-(Pyrazin-2-yl)urea] was tested, and the IC50 was less than 100 nM.
Work on `O=C(Nc1cnccn1)Nc1cccc2cnccc12` [Example 20, 1-Isoquinolin-5-yl-3-pyrazin-2-yl-urea] yielded an IC50 of 100 to 10000 nM.
Molecule `O=C(Nc1cnccn1)Nc1ccnc2ccc(Br)cc12` [Example 2, 1-(6-Bromo-quinolin-4-yl)-3-pyrazin-2-yl-urea] has an IC50 of less than 100 nM.
“1-(Pyrazin-2-yl)-3-(pyridin-4-yl)urea [Example 24]” was tested, and the IC50 was 100 to 10000 nM.
With `O=C(Nc1cnc2ccccc2c1)Nc1cnccn1` [Example 40, 1-(Pyrazin-2-yl)-3-(quinolin-3-yl)urea, reference compound] the IC50 was greater than 10000 nM.
`Cc1cc(NC(=O)Nc2cnccn2)c2ccccc2n1` [Example 12, 1-(2-Methyl-quinolin-4-yl)-3-pyrazin-2-yl-urea] showed an IC50 of 100 to 10000 nM.
Work on `O=C(Nc1cnccn1)Nc1cccc2ncccc12` [Example 21, 1-Pyrazin-2-yl-3-quinolin-5-yl-urea] yielded an IC50 of 100 to 10000 nM.
